Experimental data: patent publication US8604003B2, “Promoter for hard tissue formation” (Seikagaku Corporation, priority 2005, dated 2013)
“Also recorded” adds a separate entry of the source.

Legend:
cell strain MC3T3-E1 [1] = test: Cellular ALP activity (Bessey-Lowry method), 2% FBS-containing αMEM; type: cell-based, mouse; conditions: 50 μg/ml sample, first week after confluence, vs control without sample (FIG. 1, FIG. 2)
Procedure: (§1) A mouse bone marrow-derived mesenchymal cell strain, ST2 cell strain, and a mouse osteoblast-like cell strain having more high differentiation degree, MC3T3-E1 cell strain, (both obtained from RIKEN CELL BANK), were used. In the following, culturing of these cells was carried out all under a condition of 37° C. and 5% CO2. Additionally, antibiotics (100 U/ml in final concentration of penicillin G, 100 μg/ml in final concentration of streptomycin and 250 μg/ml in final concentration of gentamicin) were allowed to coexist in all of the media to be used for the culturing of these cells.
(§2) Cellular ALP activity was measured as the index of cell differentiation. Cells were inoculated onto a 24 well culture plate at a density of 5×10^3 cells/well and cultured by adding 50 μg/ml in final concentration of each sample to 2% FBS-containing αMEM. On the first week after the cells reached confluent, ALP activity was measured by the following enzymologic method (Bessey-Lowry method).
(§3) After washing the cultured cells with PBS, the cells were disrupted and stirred for 40 seconds in 10 mM Tris-HCl buffer (pH 7.4, 500 μl) using an ultra sonic homogenizer (Handy Sonic model UR-20P; mfd. by Tomy Seiko Co., Ltd.). Next, 25 μl of the sample liquid was added to 125 μl of an ALP buffer (0.1M carbonate buffer pH 9.8, 6.7 mM p-nitrophenyl phosphate, 2 mM MgCl2) and incubated at 37° C. for 30 minutes. After terminating the reaction by adding 125 μL of 0.2 N NaOH, the absorbance at 405 nm was measured by using a microplate reader (Model 550, manufactured by Bio-Rad Laboratories). The calculated ALP activity was shown by unit per the number of cells. Additionally, a case in which the sample to be tested was not added was used as a control.
(§4) The results in which each sample to be tested was added to the cell strain MC3T3-E1 are shown in FIG. 1, and the results in which a sample to be tested (Hep, 2DSH, 6DSH or NDSH) was added to the cell strain MC3T3-E1 are shown in FIG. 2, and the results in which a sample to be tested (Hep, 2DSH, 6DSH or NDSH) was added to the cell strain ST2 are shown in FIG. 3, respectively.

cell strain ST2 [2] = test: as above; type: cell-based, mouse; conditions: 50 μg/ml sample, first week after confluence, vs control without sample (FIG. 3)
Procedure: as §1, §2, §3, §4

cell strain MC3T3-E1 [3] = test: Calcification ability, alizarin staining; type: cell-based, mouse; conditions: MC3T3-E1, 50 μg/ml sample, first week after confluence
Procedure: as §2
(§5) In order to examine calcification ability of the cells, alizarin staining (ALZ staining; stained in red indicates accelerated calcification) was carried out in accordance with the usual way, in the aforementioned “Actions on cell differentiation (1)” on the first week after the cells reached confluent. The cells were washed with PBS, fixed with 10 neutral-buffered formalin and then stained with 0.01 Alizarin Red S (manufactured by Wako Pure Chemical Industries).

cell strain ST2 [4] = test: Calcification ability, alizarin staining; type: cell-based, mouse; conditions: ST2, 50 μg/ml sample, first week after confluence
Procedure: as §2, §5

Wistar rat [5] = test: Transplantation under the cranial periosteum on hydroxyapatite carrier, HE staining, formation of hard tissue (bone); type: in vivo; conditions: 3 mg/ml sample on hydroxyapatite under cranial periosteum, fourth and eighth week
Procedure: (§6) A Wistar rat of 8 weeks of age was subjected to general anesthesia with ethyl carbamate 20 solution at a dose of 0.5 ml per 100 g body weight, and then the forehead skin and periosteum were incised. Each sample to be tested (Hep, 2DSH, 6DSH or NDSH; 100 μl for each) diluted to a concentration of 3 mg/ml with PBS was transplanted under the cranial periosteum. In this case, hydroxyapatite was used as the carrier.
(§7) Specifically, a block of hydroxyapatite (size: 3 mm in length×2 mm in breadth×2 mm in height; adsorbs about 0.1 ml of solution) was soaked for 30 minutes in each sample to be tested of a concentration of 3 mg/ml. It was used for the transplantation.
A substance in which test sample-free PBS was used was used as the control.
Each animal was sacrificed on the fourth week and eighth week after transplantation of the sample to be tested. Then slices of the transplanted parts were prepared and subjected to hematoxylin-eosin staining (HE staining). It was observed under an optical microscope to evaluate degree of the formation of a hard tissue (bone).

Wistar rat [6] = test: Transplantation under the cranial periosteum, ratio of area of bone tissue to total tissues (image analysis); type: in vivo; conditions: 3 mg/ml sample on hydroxyapatite, fourth, eighth and twelfth week (FIG. 7)
Procedure: as §6, §7
In the same manner as in the aforementioned “5. Actions on cell differentiation (5)”, slices of the transplanted parts were prepared by sacrificing each animal on the fourth week, eighth week and twelfth week after transplantation of the sample to be tested (n=5 for each group). Ratio of the area of bone tissue to the area of the total tissues observed in the image of the slices of transplanted region was analyzed using an image analyzing software (Scion image; Scion Corporation). In this connection, the bars of respective weeks in FIG. 7 show the results in the control group, 2DSH group, 6DSH group, NDSH group and Hep group, respectively, starting from the left side.

cell strain MC3T3-E1 [7] = test: Actions on cell growth, cell number by Coulter counter; type: cell-based, mouse; conditions: 50 μg/ml sample, αMEM containing 2% FBS, days 0, 1, 3, 6 (FIG. 8)
Procedure: (§8) Respective cells were inoculated onto a 24 well culture plate (manufactured by Falcon) in 5×10^3 cells/well portions. Starting on the first day after the inoculation, each sample to be tested (Hep, 2DSH, 6DSH or NDSH) was added to the culture liquid (αMEM containing 2% FBS) to a final concentration of 50 μg/ml. On the zero day, first day, third day and sixth day after addition of the sample to be tested, the number of cells was counted using a Coulter counter (COULTER Z1, manufactured by Coulter Electronics Inc.). A case in which the sample to be tested was not added was used as the control.

cell strain ST2 [8] = test: as above; type: cell-based, mouse; conditions: 50 μg/ml sample, αMEM containing 2% FBS, days 0, 1, 3, 6 (FIG. 9)
Procedure: as §8

cell strain MC3T3-E1 [9] = test: Cellular ALP activity, serum-free medium; type: cell-based, mouse; conditions: 50 μg/ml sample, serum-free medium (FIG. 4)
Procedure: as §1
(§9) Cellular ALP activity was measured as the index of cell differentiation. […] On the first week after the cells reached confluent, ALP activity was measured by the following enzymologic method (Bessey-Lowry method).
as §3
(§10) The results of adding each sample to be tested (Hep, 2DSH, 6DSH or NDSH) to the cell strain MC3T3-E1 are shown in FIG. 4, and the results of adding each sample to be tested (Hep, 2DSH, 6DSH or NDSH) to the cell strain ST2 are shown in FIG. 5, respectively. In this connection, the calculated ALP activity was shown by a numerical value of cells per DNA weight.

cell strain ST2 [10] = test: Cellular ALP activity, serum-free medium; type: cell-based, mouse; conditions: 50 μg/ml sample, serum-free medium (FIG. 5)
Procedure: as §1, §9, §3, §10

Wistar rat [11] = test: Transplantation under the cranial periosteum, ratio of area of formed bone to hydroxyapatite region (image analysis); type: in vivo; conditions: 3 mg/ml sample on hydroxyapatite, fourth week and sixth week (FIG. 6)
Procedure: as §6, §7
In the same manner as in the aforementioned “5. Actions on cell differentiation (5)”, slices of the transplanted parts were prepared by sacrificing each animal on the fourth week and sixth week after transplantation of the sample to be tested (n=2 for each group). Ratio of the area of formed bone (hard tissue) to the area of the hydroxyapatite region observed in the image of said slice was analyzed by using an image analyzing software (Scion image; Scion Corporation).

Substance | ALP activity of the cell strain MC3T3-E1 (cell strain MC3T3-E1 [1]) | ALP activity of the cell strain ST2 (cell strain ST2 [2]) | formation of calcification matter (alizarin staining) (cell strain MC3T3-E1 [3]) | formation of calcification matter (alizarin staining) (cell strain ST2 [4]) | formation of bone (HE staining, optical microscope) (Wistar rat [5]) | ratio of the area of bone tissue to the area of the total tissues (Wistar rat [6]) | growth of the cell strain MC3T3-E1 (number of cells) (cell strain MC3T3-E1 [7]) | growth of the cell strain ST2 (number of cells) (cell strain ST2 [8]) | ALP activity of the cell strain MC3T3-E1 under the serum-free condition (cell strain MC3T3-E1 [9]) | ALP activity of the cell strain ST2 under the serum-free condition (cell strain ST2 [10]) | ratio of the area of formed bone (hard tissue) to the area of the hydroxyapatite region (Wistar rat [11])
heparin [reference compound] | increased the ALP activity; also recorded: particularly effective | increased the ALP activity | accelerated formation of calcification matter | accelerated formation of calcification matter; also recorded: strong acceleration | formation of bone was observed | formation of bone (hard tissue) was confirmed within a broad range; also recorded: remarkable | suppress growth | suppressed it | increased the ALP activity; also recorded: particularly effective | increased the ALP activity | formation of bone (hard tissue) was confirmed within a broad range
2-O-desulfated heparin [2DSH] | increased the ALP activity | increased the ALP activity | accelerated formation of calcification matter | accelerated formation of calcification matter; also recorded: strong acceleration | formation of bone was observed; also recorded: Remarkable bone formation | formation of bone (hard tissue) was confirmed within a broad range; also recorded: remarkable | small in comparison with that of Hep; also recorded: suppress growth | accelerated growth | increased the ALP activity; also recorded: particularly effective | increased the ALP activity; also recorded: particularly effective | formation of bone (hard tissue) was confirmed within a broad range; also recorded: remarkable
N-desulfated heparin [NDSH] | increased the ALP activity | increased the ALP activity; also recorded: particularly effective | accelerated formation of calcification matter | accelerated formation of calcification matter; also recorded: strong acceleration | formation of bone was observed | formation of bone (hard tissue) was confirmed within a broad range; also recorded: remarkable | small in comparison with that of Hep; also recorded: suppress growth |  | increased the ALP activity; also recorded: particularly effective | increased the ALP activity | formation of bone (hard tissue) was confirmed within a broad range; also recorded: remarkable
6-O-desulfated heparin [6DSH] | increased the ALP activity | increased the ALP activity | accelerated formation of calcification matter | accelerated formation of calcification matter | formation of bone was observed | formation of bone (hard tissue) was confirmed within a broad range | small in comparison with that of Hep; also recorded: suppress growth |  | increased the ALP activity | increased the ALP activity | formation of bone (hard tissue) was confirmed within a broad range
